ChEMBL document CHEMBL1128717, “2,4-Diaminopyrido[3,2-d]pyrimidine inhibitors of dihydrofolate reductase from Pneumocystis carinii and Toxoplasma gondii” (J Med Chem, 1995)

Legend:
[1] = target: T1, Bifunctional dihydrofolate reductase-thymidylate synthase (Toxoplasma gondii, UniProt Q07422); assay: Concentration inhibiting Toxoplasma gondii dihydrofolate reductase
T1 sequence (Q07422 whole entry): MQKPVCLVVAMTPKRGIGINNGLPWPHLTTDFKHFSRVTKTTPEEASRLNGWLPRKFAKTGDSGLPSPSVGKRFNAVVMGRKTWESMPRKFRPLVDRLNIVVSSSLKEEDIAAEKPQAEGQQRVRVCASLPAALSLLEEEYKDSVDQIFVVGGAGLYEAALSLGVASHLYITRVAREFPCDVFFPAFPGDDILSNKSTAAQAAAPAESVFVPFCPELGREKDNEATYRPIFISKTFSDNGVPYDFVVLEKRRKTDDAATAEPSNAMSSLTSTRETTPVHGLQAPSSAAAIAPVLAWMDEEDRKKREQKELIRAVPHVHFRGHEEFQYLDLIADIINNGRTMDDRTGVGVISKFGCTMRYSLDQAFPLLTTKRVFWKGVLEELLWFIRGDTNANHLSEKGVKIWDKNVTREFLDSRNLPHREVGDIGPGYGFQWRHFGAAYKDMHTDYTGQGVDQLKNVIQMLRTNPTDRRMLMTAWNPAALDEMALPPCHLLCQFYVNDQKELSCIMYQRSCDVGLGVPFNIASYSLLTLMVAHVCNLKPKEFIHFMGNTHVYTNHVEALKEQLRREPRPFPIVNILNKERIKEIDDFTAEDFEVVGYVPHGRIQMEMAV

Dihydrofolate reductase [2] = target: T2, Dihydrofolate reductase (Pneumocystis carinii, UniProt P16184)
T2 sequence (P16184 whole entry): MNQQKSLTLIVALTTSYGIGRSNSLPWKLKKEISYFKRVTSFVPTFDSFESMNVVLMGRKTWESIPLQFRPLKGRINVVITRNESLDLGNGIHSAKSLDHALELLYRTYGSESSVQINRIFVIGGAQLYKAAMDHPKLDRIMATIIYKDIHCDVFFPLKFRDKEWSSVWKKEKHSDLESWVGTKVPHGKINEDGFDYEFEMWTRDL
Description: Concentration inhibiting Pneumocystis carinii dihydrofolate reductase

Dihydrofolate reductase [3] = target: T3, Dihydrofolate reductase (Rattus norvegicus, UniProt Q920D2)
T3 sequence (Q920D2 whole entry): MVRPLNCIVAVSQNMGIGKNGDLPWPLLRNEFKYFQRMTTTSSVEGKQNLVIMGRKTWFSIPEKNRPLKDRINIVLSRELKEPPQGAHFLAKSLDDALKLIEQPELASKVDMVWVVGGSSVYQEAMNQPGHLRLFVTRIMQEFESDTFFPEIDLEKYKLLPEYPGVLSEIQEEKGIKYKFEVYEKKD
Description: Concentration inhibiting rat liver dihydrofolate reductase.

Structure (SMILES) | IC50 [1] | IC50 (Dihydrofolate reductase [2]) | IC50 (Dihydrofolate reductase [3])
CN(Cc1ccc2nc(N)nc(N)c2n1)c1ccc(Cl)cc1 | 0.015 µM | 0.062 µM | 0.022 µM
CN(Cc1ccc2nc(N)nc(N)c2n1)c1cccc(Cl)c1 | 0.02 µM | 2.1 µM | 0.067 µM
COc1cc(NCc2ccc3nc(N)nc(N)c3n2)cc(OC)c1OC | 0.082 µM | 2.6 µM | 
CN(Cc1ccc2nc(N)nc(N)c2n1)c1ccc(Cl)c(Cl)c1 | 0.098 µM | 0.022 µM | 0.032 µM
COc1ccc(OC)c(NCc2ccc3nc(N)nc(N)c3n2)c1 | 0.1 µM | 1.4 µM | 0.43 µM
COc1cc(N(C)Cc2ccc3nc(N)nc(N)c3n2)cc(OC)c1OC | 0.0047 µM | 0.13 µM | 0.026 µM
